# Measurements from patent US9242996B2 (Novartis AG, priority 2013, dated 2016).
# Biological target: activated ERK2 (Homo sapiens (Human), UniProt P28482)
# Assay: Activated ERK2 (20 pM) Kinase Assay (AlphaScreen, ERKtide phosphorylation)
# Type: biochemical
# Conditions: 0.02 nM ERK2, 400 nM ERKtide peptide, 35 μM ATP, 30 min preincubation
# Procedure, shortened: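 Activated human ERK2 (0.02 nM) preincubated 30 min with compounds, then 400 nM ERKtide and 35 μM ATP added for 4 h at ambient temperature in HEPES pH 7.5, MgCl2, DTT, Tween-20, BSA. EDTA stop; phospho-peptide read by AlphaScreen after overnight dark incubation; four-parameter IC50.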
# activated ERK2, sequence (P28482 whole entry): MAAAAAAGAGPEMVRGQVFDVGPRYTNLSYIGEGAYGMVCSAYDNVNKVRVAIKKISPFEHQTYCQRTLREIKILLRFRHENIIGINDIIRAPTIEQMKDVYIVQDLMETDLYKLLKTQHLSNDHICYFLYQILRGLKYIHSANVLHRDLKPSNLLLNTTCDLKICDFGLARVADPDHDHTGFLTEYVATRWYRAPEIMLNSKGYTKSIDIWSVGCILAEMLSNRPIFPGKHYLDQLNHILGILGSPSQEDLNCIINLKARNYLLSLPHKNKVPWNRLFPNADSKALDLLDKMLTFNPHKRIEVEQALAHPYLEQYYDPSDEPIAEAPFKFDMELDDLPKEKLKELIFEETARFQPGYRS
row,IC50 [pM],SMILES
1,105,"Nc1ncc(C2CCC(F)(F)CC2)nc1-c1ccc(C(=O)N[C@H](CO)c2cccc(Cl)c2)c(F)c1 [Example 435, (S)-4-(3-amino-6-(4,4-difluoro-cyclohexyl)pyrazin-2-yl)-N-(1-(3-chlorophenyl)-2-hydroxyethyl)-2-fluorobenzamide]"
2,48.5,"Nc1ncc([C@H]2CC[C@H](O)CC2)nc1-c1ccc(C(=O)N[C@H](CO)c2cccc(Br)c2)c(F)c1 [Example 436, 4-(3-amino-6-((1r,4S)-4-hydroxy-cyclohexyl)pyrazin-2-yl)-N-((S)-1-(3-bromophenyl)-2-hydroxyethyl)-2-fluorobenzamide]"
3,70.1,"Nc1ncc([C@H]2CC[C@@H](O)CC2)cc1-c1ccc(C(=O)N[C@H](CO)c2cccc(Cl)c2)c(F)c1 [Example 440, 4-(2-amino-5-((1s,4R)-4-hydroxy-cyclohexyl)pyridin-3-yl)-N-((S)-1-(3-chlorophenyl)-2-hydroxyethyl)-2-fluorobenzamide]"
4,55.9,"COC(=O)N[C@H]1CC[C@H](c2cnc(N)c(-c3ccc(C(=O)N[C@H](CO)c4cc(F)cc(Br)c4)c(F)c3)n2)CC1 [Example 441, Methyl ((1S,4r)-4-(5-amino-6-(4-(((S)-1-(3-bromo-5-fluorophenyl)-2-hydroxyethyl)carbamoyl)-3-fluorophenyl)pyrazin-2-yl)cyclohexyl) carbamate]"
5,339,"Nc1ncc([C@H]2CC[C@H](O)CC2)cc1-c1ccc(C(=O)N[C@H](CO)c2cccc(Cl)c2)c(F)c1 [Example 442, 4-(2-amino-5-((1r,4S)-4-hydroxy-cyclohexyl)pyridin-3-yl)-N-((S)-1-(3-chlorophenyl)-2-hydroxyethyl)-2-fluorobenzamide]"
6,345,"C[C@@H](NC(=O)c1ccc(-c2cc([C@H]3CC[C@H](O)CC3)cnc2N)cc1F)c1cc(F)cc(S(C)(=O)=O)c1 [Example 443, 4-(2-amino-5-((1r,4R)-4-hydroxy-cyclohexyl)pyridin-3-yl)-2-fluoro-N-((R)-1-(3-fluoro-5-(methylsulfonyl)phenyl)ethyl) benzamide]"
7,371,"Nc1ncc([C@H]2CC[C@@H](F)CC2)nc1-c1ccc(C(=O)N[C@H](CO)c2cccc(Cl)c2)c(F)c1 [Example 448, 4-(3-amino-6-((1s,4R)-4-fluorocyclohexyl)pyrazin-2-yl)-N-((S)-1-(3-chlorophenyl)-2-hydroxyethyl)-2-fluorobenzamide]"
8,184,"Nc1ncc([C@H]2CC[C@H](F)CC2)nc1-c1ccc(C(=O)N[C@H](CO)c2cccc(Cl)c2)c(F)c1 [Example 449, 4-(3-amino-6-((1r,4S)-4-fluorocyclohexyl)pyrazin-2-yl)-N-((S)-1-(3-chlorophenyl)-2-hydroxyethyl)-2-fluorobenzamide]"
9,1500,"N#CC1CCC(c2cnc(N)c(-c3ccc(C(=O)N[C@H](CO)c4cc(F)cc(Br)c4)c(F)c3)n2)CC1 (stereo partly drawn) [Example 450, (S)-4-(3-amino-6-(4-cyanocyclohexyl)pyrazin-2-yl)-N-(1-(3-bromo-5-fluorophenyl)-2-hydroxyethyl)-2-fluorobenzamide]"
10,44.2,"N#CC1CCC(c2cnc(N)c(-c3ccc(C(=O)N[C@H](CO)c4cc(F)cc(Br)c4)c(F)c3)n2)CC1 (stereo partly drawn) [Example 451, (S)-4-(3-amino-6-(4-cyanocyclohexyl)pyrazin-2-yl)-N-(1-(3-bromo-5-fluorophenyl)-2-hydroxyethyl)-2-fluorobenzamide]"
11,82.3,CNC[C@@H](NC(=O)c1ccc(-c2nc([C@H]3CC[C@H](O)C(F)(F)C3)cnc2N)cc1F)c1cc(F)cc(Br)c1 [Example 458]
12,26.1,"Nc1ncc([C@@H]2CC[C@@H](O)C(F)(F)C2)nc1-c1ccc(C(=O)N[C@H](CO)c2cc(F)cc(Br)c2)c(F)c1 [Example 459, 4-(3-amino-6-((1R,4R)-3,3-difluoro-4-hydroxy-cyclohexyl)pyrazin-2-yl)-2-fluoro-N-((S)-1-(3-fluoro-5-bromophenyl)-2-hydroxyethyl) benzamide]"
13,39.7,"Nc1ncc([C@H]2CC[C@H](O)C(F)(F)C2)nc1-c1ccc(C(=O)N[C@H](CO)c2cc(F)cc(Br)c2)c(F)c1 [Example 460, 4-(3-amino-6-((1S,4S)-3,3-difluoro-4-hydroxy-cyclohexyl)pyrazin-2-yl)-2-fluoro-N-((S)-1-(3-fluoro-5-bromophenyl)-2-hydroxyethyl) benzamide]"
14,4.31,"Nc1ncc([C@@H]2CC[C@@H](O)[C@H](O)C2)nc1-c1ccc(C(=O)N[C@H](CO)c2cc(F)cc(I)c2)c(F)c1 [Example 461, 4-(3-amino-6-((1R,3R,4R)-3,4-dihydroxy-cyclohexyl)pyrazin-2-yl)-2-fluoro-N-((S)-1-(3-fluoro-5-iodophenyl)-2-hydroxyethyl) benzamide]"
15,135,"Nc1ncc([C@@H]2CC[C@H](O)[C@H](O)C2)nc1-c1ccc(C(=O)N[C@H](CO)c2cc(F)cc(I)c2)c(F)c1 [Example 462, 4-(3-amino-6-((1R,3R,4S)-3,4-dihydroxy-cyclohexyl)pyrazin-2-yl)-2-fluoro-N-((S)-1-(3-fluoro-5-iodophenyl)-2-hydroxyethyl) benzamide]"
16,5.5,"Nc1ncc([C@H]2CC[C@H](O)[C@@H](O)C2)nc1-c1ccc(C(=O)N[C@H](CO)c2cc(F)cc(I)c2)c(F)c1 [Example 463, 4-(3-amino-6-((1S,3S,4S)-3,4-dihydroxy-cyclohexyl)pyrazin-2-yl)-2-fluoro-N-((S)-1-(3-fluoro-5-iodophenyl)-2-hydroxyethyl) benzamide]"
17,137,"Nc1ncc([C@H]2CC[C@@H](O)[C@@H](O)C2)nc1-c1ccc(C(=O)N[C@H](CO)c2cc(F)cc(I)c2)c(F)c1 [Example 464, 4-(3-amino-6-((1S,3S,4R)-3,4-dihydroxy-cyclohexyl)pyrazin-2-yl)-2-fluoro-N-((S)-1-(3-fluoro-5-iodophenyl)-2-hydroxyethyl) benzamide]"
18,18.7,"Nc1ncc([C@@H]2CC[C@@H](O)[C@H](O)C2)nc1-c1ccc(C(=O)N[C@H](CO)c2cc(F)cc(Br)c2)c(F)c1 [Example 465, 4-(3-amino-6-((1R,3R,4R)-3,4-dihydroxy-cyclohexyl)pyrazin-2-yl)-2-fluoro-N-((S)-1-(3-fluoro-5-bromophenyl)-2-hydroxyethyl) benzamide]"
19,218,"Nc1ncc([C@H]2CC[C@@H](O)[C@@H](O)C2)nc1-c1ccc(C(=O)N[C@H](CO)c2cc(F)cc(Br)c2)c(F)c1 [Example 466, 4-(3-amino-6-((1S,3S,4R)-3,4-dihydroxy-cyclohexyl)pyrazin-2-yl)-2-fluoro-N-((S)-1-(3-fluoro-5-bromophenyl)-2-hydroxyethyl) benzamide]"
20,44.6,"Nc1ncc([C@H]2CC[C@H](O)[C@@H](O)C2)nc1-c1ccc(C(=O)N[C@H](CO)c2cc(F)cc(Br)c2)c(F)c1 [Example 467, 4-(3-amino-6-((1S,3S,4S)-3,4-dihydroxy-cyclohexyl)pyrazin-2-yl)-2-fluoro-N-((S)-1-(3-fluoro-5-bromophenyl)-2-hydroxyethyl) benzamide]"
21,251,"Nc1ncc([C@@H]2CC[C@H](O)[C@H](O)C2)nc1-c1ccc(C(=O)N[C@H](CO)c2cc(F)cc(Br)c2)c(F)c1 [Example 468, 4-(3-amino-6-((1R,3R,4S)-3,4-dihydroxy-cyclohexyl)pyrazin-2-yl)-2-fluoro-N-((S)-1-(3-fluoro-5-bromophenyl)-2-hydroxyethyl) benzamide]"
